Laboratory results as given in patent US20210283078A1, “Treatment of cholestatic pruritus” (CymaBay Therapeutics, Inc., priority 2017, published 2021).
Like-named read-outs stand apart in the source and are kept apart here.

Experiments:
[1] = system: PBC patients with pruritus; conditions: Phase 2a; cited from earlier work
PBC patients = conditions: 12-month trial, cited from earlier work
adult subjects with PBC [2] = assay: Example 1: High dose trial in PBC (NCT02609048); assay type: in vivo, human; conditions: for cases of asymptomatic increases in transaminases: reversible on cessation, no elevation of total bilirubin
From the text: (§1) The trial subjects were adult, male or female, with a diagnosis of PBC by at least two of the following three criteria: (a) a history of alkaline phosphatase (ALP) above the upper limit of normal (ULN) for at least six months, (b) positive anti-mitochondrial antibody titers >1/40 on immunofluorescence or M2 positive by enzyme linked immunosorbent assay or positive PBC-specific antinuclear antibodies, and (c) documented liver biopsy result consistent with PBC, on a stable and recommended dose of UDCA for the past twelve months, and ALP≥1.67×ULN. Exclusion criteria included AST or ALT≥3×ULN, total bilirubin (TBIL)≥2×ULN, autoimmune hepatitis or a history of chronic viral hepatitis, PSC, the current use of fibrates or simvastatin, the use of colchicine, methotrexate, azathioprine, or systemic steroids in the previous two months, the use of an experimental treatment for PBC, and the use of an experimental or unapproved immunosuppressant. […] Pruritus was assessed using VAS, 5-D itch, and PBC-40. During the study, three cases of asymptomatic increases in transaminases were observed (two in the 200 mg and one in the 50 mg groups): all were reversible on cessation of treatment and were not accompanied by elevation of total bilirubin. Since the study had already shown a clear efficacy signal, the study was discontinued.

[3] = system: adult subjects with PSC, PFIC, or AS; assay: Example 3: treatment of subjects with hepatobiliary disease associated with pruritus; assay type: in vivo, human; conditions: 1, 2, 5, and 10 mg/day oral
Method: Subjects are permitted their usual other medications, including UDCA. […] At each visit, the subjects are assessed for cholestatic symptoms and biomarkers, and assessed for cholestatic pruritus. The subjects also maintain health diaries, which are reviewed at each visit.

adult subjects with PBC [4] = assay: Example 2: Low-dose trial in PBC (NCT02955602), pruritus by VAS; assay type: in vivo, human; conditions: for baseline median VAS: subjects with VAS>0 at baseline; for median change in VAS: week 26
From the text: as §1
At 12 weeks, the results of pruritus assessment by VAS (0-100 scale) were as follows:
37 subjects with VAS>0 at baseline were analysed in the interim analysis at 26 weeks: 18 subjects in the 5/10 mg group and 19 in the 10 mg group. Baseline median VAS were 15 (range 1-68) and 50 (range 5-90) in the 5/10 mg and 10 mg groups, respectively. At week 26, median changes in VAS were −50% and −55% in the 5/10 mg and 10 mg groups, respectively.

[5] = system: patients with cholestatic pruritus; conditions: several studies; cited from earlier work
[6] = system: patients with cholestatic pruritus; conditions: more recent study; cited from earlier work
[7] = system: patients with cholestatic pruritus; conditions: two studies; cited from earlier work

CCCC[C@]1(CC)CS(=O)(=O)c2cc(CNC(CC(=O)O)CC(=O)O)c(OC)cc2[C@@H](c2ccccc2)N1 [GSK2330672]
diarrhea (most common side effect), subjects [1]: 33%
reductions in itch scores (1-10 numerical rating scale, PBC-40 itch domain score, 5-D itch scale) vs placebo [1]: significantly greater reductions in itch scores

CC[C@H]1[C@@H](O)[C@@H]2[C@H](CC[C@]3(C)[C@@H]([C@H](C)CCC(=O)O)CC[C@@H]23)[C@@]2(C)CC[C@@H](O)C[C@@H]12 [OCALIVA, 6α-ethylchenodeoxycholic acid]
severe pruritus, patients (PBC patients; 10 mg arm): 23%
severe pruritus, patients (PBC patients; titration arm): 19%

CCO[C@H](COc1ccc(C(F)(F)F)cc1)CSc1ccc(OCC(=O)O)c(C)c1 [Seladelpar, [4-({(2R)-2-ethoxy-3-[4-(trifluoromethyl)phenoxy]propyl}sulfanyl)-2-methylphenoxy]acetic acid]
cases of asymptomatic increases in transaminases (adult subjects with PBC [2]; 50 mg/day oral): one
cases of asymptomatic increases in transaminases (adult subjects with PBC [2]; 200 mg/day oral): two
adverse events of pruritus on treatment (adult subjects with PBC [2]; 50 or 200 mg/day oral): no adverse events of pruritus were reported
anti-cholestatic effect (primary endpoint ALP) (adult subjects with PBC [2]; 50 or 200 mg/day oral, at least two weeks of treatment): a potent anti-cholestatic effect was observed
improvement in disease (decrease in ALP and GGT) [3]: improvement in their disease
effect on cholestatic pruritus associated with PBC (adult subjects with PBC [4]; 5 mg/day and 10 mg/day, 12 weeks): significantly reduced the cholestatic pruritus
pruritus VAS (0-100 scale), median (adult subjects with PBC [4]; 5 mg/day, Visit 2 (Day 1)): 8
pruritus VAS (0-100 scale), median (adult subjects with PBC [4]; 5 mg/day, Visit 3 (Week 1)): 10
pruritus VAS (0-100 scale), median (adult subjects with PBC [4]; 5 mg/day, Visit 4 (Week 2)): 9
pruritus VAS (0-100 scale), median (adult subjects with PBC [4]; 5 mg/day, Visit 5 (Week 4)): 10
pruritus VAS (0-100 scale), median (adult subjects with PBC [4]; 5 mg/day, Visit 6 (Week 6)): 5
pruritus VAS (0-100 scale), median (adult subjects with PBC [4]; 5 mg/day, Visit 7 (Week 8)): 7
pruritus VAS (0-100 scale), median (adult subjects with PBC [4]; 5 mg/day, Visit 8 (Week 12)): 3
baseline median VAS (adult subjects with PBC [4]; 10 mg group, n=19): 50 (range 5-90)
median change in VAS (adult subjects with PBC [4]; 10 mg group): −55%
pruritus VAS (0-100 scale), median (adult subjects with PBC [4]; 10 mg/day, Visit 2 (Day 1)): 25
pruritus VAS (0-100 scale), median (adult subjects with PBC [4]; 10 mg/day, Visit 3 (Week 1)): 13
pruritus VAS (0-100 scale), median (adult subjects with PBC [4]; 10 mg/day, Visit 4 (Week 2)): 30
pruritus VAS (0-100 scale), median (adult subjects with PBC [4]; 10 mg/day, Visit 5 (Week 4)): 20
pruritus VAS (0-100 scale), median (adult subjects with PBC [4]; 10 mg/day, Visit 6 (Week 6)): 10
pruritus VAS (0-100 scale), median (adult subjects with PBC [4]; 10 mg/day, Visit 7 (Week 8)): 15
pruritus VAS (0-100 scale), median (adult subjects with PBC [4]; 10 mg/day, Visit 8 (Week 12)): 6
subjects discontinued for increased pruritus possibly related to PBC (adult subjects with PBC [4]; 10 mg/day, after five days, subject entered with intense pruritus): One
baseline median VAS (adult subjects with PBC [4]; 5/10 mg group, n=18): 15 (range 1-68)
median change in VAS (adult subjects with PBC [4]; 5/10 mg group): −50%
discontinuations related to seladelpar (adult subjects with PBC [4]; at 26 weeks): no discontinuations related to seladelpar
serious adverse events due to pruritus (adult subjects with PBC [4]; at 26 weeks): no serious adverse events due to pruritus
pruritus reported as an adverse event (adult subjects with PBC [4]; at 26 weeks, 24/119 subjects): 20%
effect on cholestasis, transaminases, LDL-cholesterol, inflammation (adult subjects with PBC [4]; doses as low as 5 mg/day, at 12 weeks): reversed cholestasis, decreased transaminases, decreased LDL-cholesterol, and reduced inflammation

C=C1CC[C@@]2(O)[C@H]3Cc4ccc(O)c5c4[C@@]2(CCN3CC2CC2)[C@H]1O5 [nalmefene]
reduction of cholestatic pruritus vs control intervention [5]: more likely to reduce cholestatic pruritus than the control intervention

C=CCN1CC[C@]23c4c5ccc(O)c4O[C@H]2C(=O)CC[C@@]3(O)[C@H]1C5 [naloxone]
reduction of cholestatic pruritus vs control intervention [5]: more likely to reduce cholestatic pruritus than the control intervention

O=C1CC[C@@]2(O)[C@H]3Cc4ccc(O)c5c4[C@@]2(CCN3CC2CC2)[C@H]1O5 [naltrexone]
reduction of cholestatic pruritus vs control intervention [5]: more likely to reduce cholestatic pruritus than the control intervention

CO[C@H]1/C=C/O[C@@]2(C)Oc3c(C)c(O)c4c(O)c(c(/C=N/N5CCN(C)CC5)c(O)c4c3C2=O)NC(=O)/C(C)=C\C=C\[C@H](C)[C@H](O)[C@@H](C)[C@@H](O)[C@@H](C)[C@H](OC(C)=O)[C@@H]1C [rifampicin]
incidence of significant hepatitis [6]: 7.3%

CN[C@H]1CC[C@@H](c2ccc(Cl)c(Cl)c2)c2ccccc21 [sertraline]
tolerability and reduction of itch intensity [7]: well tolerated and moderately effective
